Test results reported in patent US20170137481A1, “Use of Cell-Permeable Peptide Inhibitors of the JNK Signal Transduction Pathway for the Treatment of Various Diseases” (Xigen Inflammation Ltd., priority 2014, published 2017).
Marks after values point to notes of the source that are not given here. Non-standard residues stand in square brackets, D forms with d. No end group written: not given here.

Tests used:
[1] = system: acute CYP-induced cystitis in female Sprague-Dawley rats; experiment: CYP-induced acute cystitis, intravesical treatment; type: in vivo, rat; settings: 50 mg/mL i.ves.; 24 h post-CYP
Procedure: (§1) This preclinical model is well-used to test therapeutic approaches for the treatment of interstitial cystitis/painful bladder syndrome (IC/PBS).
(§2) Animals were acclimatized to the laboratory conditions for at least 3 days before the start of any experiments. The animals were allocated to the following four experimental groups (n=10 animals per group):
To induce acute cystitis, a single i.p. injection of CYP at a dose of 150 mg/kg in a final volume of 5 mL/kg was performed. Control rats received physiological saline under the same experimental conditions as CYP (final volume of 5 mL/kg, i.p.).
(§3) On the day of each experiment, weight of rats was recorded.
(§4) Standardized conditions including fixed time-of-day (a.m. to minimize the potential circadian variations in the behaviours responses) and single-experimenter testing of all animals were applied to minimize variability behavior-based pain testing. Visceral pain including allodynia and hyperalgesia was evaluated by applying to the lower abdomen, close to the urinary bladder, a set of 8 calibrated von Frey filaments of increasing forces (1, 2, 4, 6, 8, 10, 26 and 60 g) with an interstimulus interval of 5 seconds. Prior testing, the abdominal area designed for mechanical stimulation of each animal was shaved. Animals were then placed on a raised wire mesh floor under individual transparent Plexiglas box and acclimatized for at least 30 minutes before starting the von Frey test. Filaments were then applied 1-2 seconds through the mesh floor with enough strength to cause the filament to slightly bend. Each filament was tested 3 times. Care was taken to stimulate different areas within the lower abdominal region in the vicinity of the urinary bladder to avoid desensitization.
Urinary bladders were rapidly collected and cleaned from lipoid tissue. […] Finally, wall thickness was measured using a digital caliper by placing the bladder wall between the two outside jaws.

[2] = system: acute CYP-induced cystitis in female Sprague-Dawley rats; experiment: CYP-induced acute cystitis, intravenous treatment, visceral pain; type: in vivo, rat; settings: XG-102 2 mg/kg i.v., ibuprofen 10 mg/kg i.v.; 24 h post-CYP
Procedure: as §1, §2
Control rats received physiological saline under the same experimental conditions as CYP (final volume of 5 mL/kg, i.p.).
as §3
as §4, with “Filaments were then applied 1-2 seconds through the mesh floor with enough strength to cause the filament to slightly bend. Each filament was tested 3 times. Care was taken to stimulate different areas within the lower abdominal region in the vicinity of the urinary bladder to avoid desensitization.” left out

JNK = settings: JBDs; cited from earlier work
[3] = system: post-surgery intraocular inflammation; experiment: Phase II post-surgery intraocular inflammation, efficacy; type: in vivo, human; settings: for Cleared ocular inflammation (cell grade 0 and flare grade 0): Yes: Dexamethasone
Procedure: The objectives of the present study were to evaluate the efficacy and safety of a single sub-conjunctival injection of XG-102 90 or 900 μg administered within maximally 3 hours after the end of the surgical procedure compared to dexamethasone eye drops administered 4 times/day for 21 days in post-operative intraocular inflammation.
In accordance with this trial's primary objective, the primary outcome was evaluated by the mean anterior chamber cells grade at day 28 post-administration of the sub-conjunctival injection of study treatment comparing XG-102 900 μg with dexamethasone eye drops.
The present trial was a randomized (1:1:1), controlled, double-blind, multicenter non-inferiority clinical trial with three parallel groups of equal size. Randomization, which was blocked by center, was performed using a web-based, secure, randomization system. Eligible patients were male or female (post-menopausal, or sterile by tubal ligation or hysterectomy), who were >18 years of age and who had undergone one of the following ocular surgeries: (a) anterior and posterior segment combined surgery which may include surgery for: cataract and retinal detachment, cataract and epimacular membrane and/or cataract and macular hole or (b) glaucoma surgery or (c) complex posterior segment surgery or (d) complicated intraocular surgery which may include cataract surgery associated with diabetic retinopathy and/or complicated retinal detachment ocular surgery. Patients were not eligible to participate if any of the following exclusion criteria was present at the moment of randomization:
The study protocol planned that 138 patients would be randomized and administered the sub-conjunctival injection of study treatment. […] Patients were randomly allocated to either XG-102 90 or 900 μg which was administered as a single, sub-conjunctival injection of 250 μl within maximally 3 hours after the end of the eye surgery or to dexamethasone eye drops, which were instilled 4 times per day for 21 days. The first study treatment eye drop was instilled within maximally 15 minutes after the sub-conjunctival injection of study treatment. In order to maintain the blinding, patients randomized to the XG-102 group received eye drops containing a NaCl 0.9% solution and patients randomized to the dexamethasone group were administered a sub-conjunctival injection containing NaCl 0.9%. Patients were followed for, in total, 28 (±5) days after administration of the sub-conjunctival injection of study treatment.
Patients were randomized to one of the three study groups: • 1. A single sub-conjunctival injection of XG-102 90 μg+placebo eye drops 4 times/day for 21 days or • 2. A single sub-conjunctival injection of XG-102 900 μg+placebo eye drops 4 times/day for 21 days or • 3. A single sub-conjunctival injection of NaCl 0.9%+dexamethasone eye drops 4 times/day for 21 days.
The primary objective was evaluated by the mean anterior chamber cells grade at day 28 post-administration of the sub-conjunctival administration of study treatment. The criteria for evaluation of the primary objective was
The ophthalmology examinations were performed at baseline (i.e. either on the day of surgery, but before the surgery was performed). […] In order to reduce operator variability, the sites were instructed that, where possible, the same operator should perform all ophthalmology examinations for the same patient throughout the trial. The ophthalmology measurements were performed in accordance with the study-specific instructions. The latter were reviewed and discussed with the site teams during the initiation visit and during each monitoring visit. For the determination of the cell/flare count and cell/flare grade, the SUN Working Group's consensus was used by the sites using the SUN Working group definitions (“Standardization of Uveitis Nomenclature for Reporting Clinical Data. Results of the First International Workshop.,” American Journal of Ophthalmology, vol 140, no. 3, pp. 509-516, 2005). […]

[4] = system: patients who underwent complex ocular surgery; experiment: Phase II post-surgery intraocular inflammation, safety
Description: The criteria for evaluation of safety were:
An AE is therefore any unfavorable and unintended sign, symptom or disease temporally associated with the use of a medicinal product, whether or not considered related to the medicinal product.
The present study was a double-blind study. All patients who were randomized and for whom the sub-conjunctival injection was started are included in the safety analysis by dose group. […] If the study treatment eye drops were stopped prematurely (i.e. before day 21), the patients concerned continued follow-up until day 28, in accordance with the study protocol.
Investigators assessed (in a blinded manner) the relationship of each reported AE to any of the study treatments. An event was considered to be related to study treatment if the Investigator ticked either ‘possible’ or ‘probable’ as the reply to this question.

[5] = molecular target: JNK of primary mouse cortical neuron cultures; experiment: cell-based or functional assay
TC-3 cells = experiment: IL-1 induced pancreatic beta-cell death with peptides; type: cell-based; settings: 1 μM single addition, two days IL-1
Procedure: Inhibition of IL-1 induced pancreatic beta-cell death by the D-TAT-IB1(s) peptide was analyzed. TC-3 cells were incubated as described above for 30 minutes with one single addition of the indicated peptides (1 μM), then IL-1 (10 ng/ml) was added.
Apoptotic cells were then counted after two days of incubation with IL-1 by use of Propidium Iodide and Hoechst 33342 nuclear staining. A minimum of 1,000 cells were counted for each experiment. Standard Error of the Means (SEM) are indicated, n=5.
Long term inhibition of IL-1 P induced cell-death by the D-TAT-IB1 peptide was also analyzed. TC-3 cells were incubated as above for 30 minutes with one single addition of the indicated peptides (1 μM), then IL-1 (10 ng/ml) was added, followed by addition of the cytokine every two days. Apoptotic cells were then counted after 15 days of incubation with IL-1 by use of propidium iodide and Hoechst 33342 nuclear staining. […] A minimum of 1.000 cells were counted for each experiment.

TC-3 cell cultures = experiment: Cellular import of fluorescein labeled TAT and TAT-IB1(s) peptides; type: cell-based; settings: 1 μM
Procedure: The ability of the L- and D-enantiomeric forms of TAT and TAT-IB1(s) peptides (“TAT-IB peptides”) to enter cells was evaluated. L-TAT, D-TAT, L-TAT-IB1(s), and D-TAT-IB1(s) peptides [SEQ ID NOs: 5, 6, 9 and 12, respectively] were labeled by N-terminal addition of a glycine residue conjugated to fluorescein. Labeled peptides (1 μM) were added to TC-3 cell cultures, which were maintained as described in Example 3. At predetermined times cells were washed with PBS and fixed for five minutes in ice-cold methanol-acetone (1:1) before being examined under a fluorescence microscope. Fluorescein-labeled BSA (1 μM, 12 moles/mole BSA) was used as a control.

[6] = Dexamethasone group, blinded assessment

## CC(C)Cc1ccc(C(C)C(=O)O)cc1 (centres unmarked) [ibuprofen]
[1]
  haemorrhage scores: no significant change was observed regarding haemorrhage scores
  nociceptive scores versus vehicle: significant decrease of nociceptive scores
  nociceptive threshold versus vehicle: significantly increased
  urinary bladder wall thickness: a significant decrease was observed in urinary bladder wall thickness
[2]
  nociceptive scores versus vehicle: significantly decrease nociceptive scores
  nociceptive threshold versus vehicle: significantly increased

## PGTGCGDTYRPKRPTTLNLFPQVPRSQDT (Description of sequence peptide IB1-long (see Table 1))
JNK
  efficiency in binding JNK versus c-Jun or ATF2: approximately 100 fold

## C[C@@H]1C[C@H]2[C@@H]3CCC4=CC(=O)C=C[C@]4(C)[C@@]3(F)[C@@H](O)C[C@]2(C)[C@@]1(O)C(=O)CO [Dexamethasone, reference compound]
[3]; Visit 1 (21 hours), Full analysis population
  Cleared ocular inflammation (cell grade 0 and flare grade 0): Yes: 4 (8.2%) # patients (%)
[3]; Visit 1 (21 hours), Per-protocol population
  Cleared ocular inflammation (cell grade 0 and flare grade 0): Yes: 4 (8.2%) # patients (%)
[3]; Visit 2 (7 days), Full analysis population
  Cleared ocular inflammation (cell grade 0 and flare grade 0): Yes: 9 (18.8%) # patients (%)
[3]; Visit 2 (7 days), Per-protocol population
  Cleared ocular inflammation (cell grade 0 and flare grade 0): Yes: 9 (18.8%) # patients (%)
[3]; Visit 3 (14 days), Full analysis population
  Cleared ocular inflammation (cell grade 0 and flare grade 0): Yes: 10 (20.4%) # patients (%)
[3]; Visit 3 (14 days), Per-protocol population
  Cleared ocular inflammation (cell grade 0 and flare grade 0): Yes: 10 (21.3%) # patients (%)
[3]; Visit 4 (28 days), Full analysis population
  Cleared ocular inflammation (cell grade 0 and flare grade 0): Yes: 17 (35.4%) # patients (%)
[3]; Visit 4 (28 days), Per-protocol population
  Cleared ocular inflammation (cell grade 0 and flare grade 0): Yes: 15 (34.9%) # patients (%)
[3]; eye drops 4 times/day, 21 days
  percentage of patients for whom rescue medication was introduced: 4.0%
[4]; Dexamethasone (N = 50)
  AEs possibly or probably related to study treatment as assessed by the Investigator: 15 Total # events
[4]; Dexamethasone dose group
  Adverse events which led to an interruption of study treatment: 3 (5.5%) number of events (% of reported events)
  Reported AEs by severity: Mild: 42 (76.4%) number of events (%)
  Reported AEs by severity: Moderate: 9 (16.4%) number of events (%)
  Reported AEs by severity: Severe: 4 (7.3%) number of events (%)
[4]; [6]
  AEs considered by the Investigator to be related to Dexamethasone: 2 (3.6%) # events (%)
  AEs considered by the Investigator to be related to XG-102: 13 (23.64%) # events (%)
[4]; dexamethasone group
  AEs possibly or probably related to study medication: 15 events
  Intraocular pressure increased, patients: 14%
  events in SOC EYE DISORDERS: 30 events
  events resulting in premature withdrawal of study treatment eye drops: 3 events
  patients with SAE: 2 patients
  patients with event in SOC EYE DISORDERS: 16 (32%)
  percentage of patients with an AE within 24 hours after administration: 30%
  total number of AEs reported: 55

## D-TAT-IB1(s) (peptide)
[5]
  JNK activation (immunoblot) in Aβ42-stressed PKR-/- cortical neurons; peptide at 10 µM: -35%
  JNK activity (pJNK/JNK ratio, immunoblot) in cortical neurons under H2O2 oxidative stress; peptide at 10 µM: 45%
  c-Jun phosphorylation (immunoblot) in Aβ42-stressed WT cortical neurons; peptide at 10 µM: -74%

## TDQSRPVQPFLNLTTPRKPRYTDPPRRRQRRKKRG ([dT][dD][dQ][dS][dR][dP][dV][dQ][dP][dF][dL][dN][dL][dT][dT][dP][dR][dK][dP][dR][dY][dT][dD][dP][dP][dR][dR][dR][dQ][dR][dR][dK][dK][dR]G) [D-TAT-IB1]
TC-3 cells
  IL-1 induced apoptosis: decreased IL-1 induced apoptosis to a similar extent as L-TAT-IB peptides

## RRRQRRKKRG (D-amino acids; Description of sequence Peptide D-TAT (see Table 1))
TC-3 cell cultures
  entry into cells: efficiently and rapidly (less than five minutes) entered cells

## GRKKRRQRRR (Description of sequence Peptide L-TAT (see Table 1))
TC-3 cell cultures
  entry into cells: efficiently and rapidly (less than five minutes) entered cells

## IPSPSVEEPHKHRPTTLRLTTLGAQDS (Description of sequence Peptide IB2-long (see Table 1))
JNK
  efficiency in binding JNK versus c-Jun or ATF2: approximately 100 fold
